Measured values as given in article PMC13021670, “Novel small molecule targeting PgQC reduces Porphyromonas gingivalis virulence” (Frontiers in Oral Health, 2026).

Molecular target: T1, P. gingivalis glutaminyl cyclase (PgQC) (Porphyromonas gingivalis, UniProt Q7MT37)
T1 construct: gene PG_2157; Recombinant P. gingivalis glutaminyl cyclase
Assay: fluorogenic enzyme assay with H-Gln-AMC, recombinant purified PgQC ([…]), fit to competitive inhibition
Type: biochemical

T1 sequence (Q7MT37 entry or part of it): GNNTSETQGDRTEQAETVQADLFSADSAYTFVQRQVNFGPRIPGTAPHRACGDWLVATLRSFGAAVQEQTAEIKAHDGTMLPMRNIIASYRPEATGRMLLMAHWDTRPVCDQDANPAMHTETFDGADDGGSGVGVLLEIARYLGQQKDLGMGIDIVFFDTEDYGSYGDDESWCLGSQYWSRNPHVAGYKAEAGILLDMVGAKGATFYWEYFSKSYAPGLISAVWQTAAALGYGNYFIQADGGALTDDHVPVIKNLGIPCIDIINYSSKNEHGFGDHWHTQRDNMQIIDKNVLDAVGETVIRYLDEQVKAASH

N=C(N)NCCOc1ccc(CNc2cnc3nc[nH]c3c2)cc1 [S-0636, 1-(2-(4-((lmidazo[4,5-b]pyridin-6-ylamino)methyl)-phenoxy)ethyl)guanidine]
Ki: 0.014 µM
